The source of these data is ChEMBL document CHEMBL4673275, “Synthesis and biological activity of (±)-7,3',4'-trihydroxyhomoisoflavan and its analogs” (Bioorg Med Chem Lett, 2021).

Calls of active or inactive are those of the source. The rule behind the calls is not given here.

Assay [1] addresses Acetylcholinesterase (Homo sapiens) (UniProt P22303). As to the kind of experiment: Inhibition of AChE (unknown origin) at 1 to 25 uM. Conditions: dose 1-25 µM.
Assay [2] concerns PC-12. The assay is described as follows: Induction of neurite outgrowth in rat PC-12 cells at 1 to 30 uM incubated for 48 hrs in presence of NGF. The class given is functional, cell-based. Conditions: dose 1-30 µM.
Assay [3] deals with PC-12. The assay is described as follows: Induction of neurite outgrowth in rat PC-12 cells at 1 to 30 uM incubated for 48 hrs. It counts as functional, cell-based. Conditions: dose 1-30 µM.
The test system of assay [4] is PC-12. The assay is described as follows: Induction of neurite outgrowth in rat PC-12 cells assessed as cell elongation at 30 uM incubated for 48 hrs in presence of NGF. It counts as functional, cell-based.

Sequence of Acetylcholinesterase (Homo sapiens) (P22303 whole entry): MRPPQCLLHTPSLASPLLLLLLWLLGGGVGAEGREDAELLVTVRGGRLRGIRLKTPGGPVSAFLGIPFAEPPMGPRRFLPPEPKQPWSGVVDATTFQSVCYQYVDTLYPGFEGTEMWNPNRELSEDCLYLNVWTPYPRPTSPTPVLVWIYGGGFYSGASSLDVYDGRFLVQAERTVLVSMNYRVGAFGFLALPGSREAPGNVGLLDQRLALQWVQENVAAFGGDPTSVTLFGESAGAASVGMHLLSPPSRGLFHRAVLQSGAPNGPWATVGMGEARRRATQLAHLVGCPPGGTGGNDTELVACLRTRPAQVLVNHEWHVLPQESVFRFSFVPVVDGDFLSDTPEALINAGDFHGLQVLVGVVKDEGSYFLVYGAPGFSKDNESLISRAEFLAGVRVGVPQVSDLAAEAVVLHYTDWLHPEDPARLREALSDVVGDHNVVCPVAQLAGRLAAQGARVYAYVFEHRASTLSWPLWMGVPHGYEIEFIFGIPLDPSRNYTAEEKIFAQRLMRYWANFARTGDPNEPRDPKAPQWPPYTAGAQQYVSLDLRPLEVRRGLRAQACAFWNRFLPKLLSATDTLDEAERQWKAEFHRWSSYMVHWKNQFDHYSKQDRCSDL

As to `CN(C)C(=O)Oc1cccc([N+](C)(C)C)c1`, in assay [1], the inhibition entry is “Active”.

Consider `O=c1c(Cc2ccc(O)c(O)c2)coc2ccccc12`, for which the result in the assay with PC-12 [2] and in the assay on PC-12 [4] was Active. Also, the outcome in the assay with PC-12 [3] was inactive. In addition, the inhibition result in assay [1] is “Active”.

As for `O=C(O)/C=C/c1ccc(O)c(O)c1`, the inhibition entry in assay [1] is “Active”.

`Oc1ccc(CC2COc3ccccc3C2)cc1O` (stereo not drawn): the result with PC-12 [2] and in the assay on PC-12 [4] was Active. In addition, the result in the assay on PC-12 [3] was inactive. Besides, in assay [1], the inhibition entry is “Active”.

Regarding `Oc1ccc2c(c1)OCC(Cc1ccc(O)c(O)c1)C2` (racemic), the outcome in the assay with PC-12 [2] and with PC-12 [4] was Active. Also, the outcome in the assay on PC-12 [3] was inactive. Also, the inhibition entry in assay [1] is “Active”.

As to `Oc1ccc(CC2COc3ccccc3C2)cc1` (stereo not drawn), the result in the assay with PC-12 [2] and with PC-12 [4] was Active. Besides, in the assay on PC-12 [3], the outcome was inactive. For the same compound, in assay [1], the inhibition entry is “inactive”.
